Measured values taken from US12304890B2, “R-type pyridyloxycarboxylic acid, salt and ester derivative thereof, and preparation method therefor, and herbicidal composition and application thereof” (Qingdao Kingagroot Chemical Compound Co., Ltd., priority 2018, dated 2025).

Legend:
Type in all cases: in vivo
[1] = tested on: Echinochloa crusgalli; assay: Post-emergence test experiment, Echinochloa crusgalli; settings: 1000 g a.i./ha, 3 weeks in greenhouse, fresh weight inhibition
Method in brief: (§1)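 Pot-grown plants, sown 2 weeks earlier and at 2-3 leaves, received a foliar spray of compound in acetone/tween-80 with methyl oleate adjuvant. Effect was expressed as fresh weight inhibition rate after three further greenhouse weeks.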

[2] = tested on: Digitaria sanguinalis; assay: Post-emergence test experiment, Digitaria sanguinalis; settings: 1000 g a.i./ha, 3 weeks in greenhouse, fresh weight inhibition
Method in brief: as §1

[3] = tested on: Monocotyledonous and dicotyledonous weed seeds and main crop seeds; assay: Post-emergence test experiment, other weeds and crops (Table 4, 1000 g a.i./ha); settings: 3 weeks in greenhouse, fresh weight inhibition
Method in brief: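 Weed and crop seeds (wheat, corn, rice, soybean, cotton, oilseed, millet, sorghum) sown in soil pots in a greenhouse and sprayed at 2-3 leaf stage, 2 weeks after sowing. Compound in acetone/tween-80 with methyl oleate concentrate (1.5 L/ha) as synergist. Effect recorded as fresh-weight growth inhibition rate.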

Row | Compound | Activity level (growth inhibition rate), Echinochloa crusgalli [1] | Activity level (growth inhibition rate), Digitaria sanguinalis [2] | Activity level (growth inhibition rate), Abutilon theophrasti Medic. [3] | Activity level (growth inhibition rate), Galium aparine [3] | Activity level (growth inhibition rate), Monochoria Vaginalis [3]
1 | C[C@@H](Oc1nc(F)c(Cl)c(N)c1Cl)C(=O)Sc1ccncc1 [Compound 2-363] | 5 (Level 5: the growth inhibition rate is greater than 85%) | 5 (Level 5: the growth inhibition rate is greater than 85%) | 5 (Level 5: the growth inhibition rate is greater than 85%) | 5 (Level 5: the growth inhibition rate is greater than 85%) | 5 (Level 5: the growth inhibition rate is greater than 85%)
2 | Cc1cn(C)nc1SC(=O)[C@@H](C)Oc1nc(F)c(Cl)c(N)c1Cl [Compound 2-365] | 5 (Level 5: the growth inhibition rate is greater than 85%) | 5 (Level 5: the growth inhibition rate is greater than 85%) | 5 (Level 5: the growth inhibition rate is greater than 85%) | 5 (Level 5: the growth inhibition rate is greater than 85%) | 5 (Level 5: the growth inhibition rate is greater than 85%)
3 | C[C@@H](Oc1nc(F)c(Cl)c(N)c1Cl)C(=O)Sc1cccn1C [Compound 2-368] | 5 (Level 5: the growth inhibition rate is greater than 85%) | 5 (Level 5: the growth inhibition rate is greater than 85%) | 5 (Level 5: the growth inhibition rate is greater than 85%) | 5 (Level 5: the growth inhibition rate is greater than 85%) | 5 (Level 5: the growth inhibition rate is greater than 85%)
4 | CCOCOC(=O)[C@@H](C)Oc1nc(F)c(Cl)c(N)c1Cl [Compound 2-370] | 5 (Level 5: the growth inhibition rate is greater than 85%) | 5 (Level 5: the growth inhibition rate is greater than 85%) | 5 (Level 5: the growth inhibition rate is greater than 85%) | 5 (Level 5: the growth inhibition rate is greater than 85%) | 5 (Level 5: the growth inhibition rate is greater than 85%)
5 | CC(Oc1nc(F)c(Cl)c(N)c1Cl)C(=O)OC(N)C(=O)O (stereo not shown) [Compound 2-371] | 5 (Level 5: the growth inhibition rate is greater than 85%) | 5 (Level 5: the growth inhibition rate is greater than 85%) | 5 (Level 5: the growth inhibition rate is greater than 85%) | 5 (Level 5: the growth inhibition rate is greater than 85%) | 5 (Level 5: the growth inhibition rate is greater than 85%)
6 | COC(=O)C(NC(=O)OC(C)(C)C)OC(=O)C(C)Oc1nc(F)c(Cl)c(N)c1Cl (stereo not shown) [Compound 2-372] | 5 (Level 5: the growth inhibition rate is greater than 85%) | 5 (Level 5: the growth inhibition rate is greater than 85%) | 5 (Level 5: the growth inhibition rate is greater than 85%) | 5 (Level 5: the growth inhibition rate is greater than 85%) | 5 (Level 5: the growth inhibition rate is greater than 85%)
7 | C[C@@H](Oc1nc(F)c(Cl)c(N)c1Cl)C(=O)SC(N)=O [Compound 2-373] | 5 (Level 5: the growth inhibition rate is greater than 85%) | 5 (Level 5: the growth inhibition rate is greater than 85%) | 5 (Level 5: the growth inhibition rate is greater than 85%) | 5 (Level 5: the growth inhibition rate is greater than 85%) | 5 (Level 5: the growth inhibition rate is greater than 85%)
8 | CCNc1c(Cl)c(F)nc(O[C@H](C)C(=O)SC)c1Cl [Compound 2-376] | 5 (Level 5: the growth inhibition rate is greater than 85%) | 5 (Level 5: the growth inhibition rate is greater than 85%) | 5 (Level 5: the growth inhibition rate is greater than 85%) | 5 (Level 5: the growth inhibition rate is greater than 85%) | 5 (Level 5: the growth inhibition rate is greater than 85%)
9 | COC(=O)[C@@H](C)Oc1nc(F)c(Cl)c(NC(C)=O)c1Cl [Compound 2-377] | 5 (Level 5: the growth inhibition rate is greater than 85%) | 5 (Level 5: the growth inhibition rate is greater than 85%) | 5 (Level 5: the growth inhibition rate is greater than 85%) | 5 (Level 5: the growth inhibition rate is greater than 85%) | 5 (Level 5: the growth inhibition rate is greater than 85%)
10 | COC(=O)[C@@H](C)Oc1nc(F)c(Cl)c(NCc2ccco2)c1Cl [Compound 2-378] | 5 (Level 5: the growth inhibition rate is greater than 85%) | 5 (Level 5: the growth inhibition rate is greater than 85%) | 5 (Level 5: the growth inhibition rate is greater than 85%) | 5 (Level 5: the growth inhibition rate is greater than 85%) | 5 (Level 5: the growth inhibition rate is greater than 85%)
11 | COC(=O)[C@@H](C)Oc1nc(F)c(Cl)c(NC(=O)c2ccccc2)c1Cl [Compound 2-379] | 5 (Level 5: the growth inhibition rate is greater than 85%) | 5 (Level 5: the growth inhibition rate is greater than 85%) | 5 (Level 5: the growth inhibition rate is greater than 85%) | 5 (Level 5: the growth inhibition rate is greater than 85%) | 5 (Level 5: the growth inhibition rate is greater than 85%)
